Several values for one entry are separate records, joined by “and”; a condition that tells them apart may be missing. Equal values may be shown once. Read-outs that look alike come from different tables or passages of the source.
Experiments:
C. elegans [1] = experiment: C. elegans motility dose-response (DR) assay; set-up: species or system Caenorhabditis elegans
C. elegans [2] = experiment: microbe, parasite or virus in culture; settings: Caenorhabditis elegans
C. elegans [3] = test system: C. elegans
[4] = test system: H. contortus susceptible strain; experiment: Egg hatch inhibition (EHI), ovicidal effect; set-up: species or system Haemonchus contortus; settings: susceptible strain, 100 μM, NE = Not Effective at 100 μM, control thiabendazole 0.1 µg/mL; for inhibition at 100 µM: Haemonchus contortus
[5] = test system: H. contortus susceptible strain; experiment: Larval migration inhibition test (LMIT); set-up: species or system Haemonchus contortus; settings: L3, 100 μM, NE = Not Effective at 100 μM, control ivermectin 8.75 µg/mL; for inhibition at 100 µM: Haemonchus contortus, 24 h
Excerpt: Eggs and third instar larvae (L3) of H. contortus from a field strain and a resistant strain of T. circumcincta were used in the current trials. These parasitic forms were obtained from fresh feces of Merino and Churra sheep experimentally infected at the experimental farm of the Instituto de Ganadería de Montaña (IGM, CSIC, Gruyeros, León, Spain) and purified according to previously described methods. Briefly, eggs were taken from fresh feces, washed, centrifuged and floated with a saturated sodium chloride solution, then concentrated, counted and used in the assays. L3 were obtained by culturing feces at 25 °C for 13 d. L3 larvae were […] in 0.5% sodium hypochlorite solution for 10 min at room temperature and washed to avoid excess salt. After washing, they were concentrated and counted for use.
The viability of H. contortus larvae was assessed by the larval migration inhibition test (LMIT) according to previously described methods. Briefly, 700 µL aliquots containing 500–600 L3 were prepared for each compound. […] After a 24 h incubation at 28 °C, the compound was removed by three washes, leaving a final volume of 1400 µL. After the washes, three 400 µL aliquots were taken from each tube and transferred to a 96-well plate with a MultiScreen mesh filter. The plates were incubated for a further 24 h at 28 °C to allow the motile L3 to pass through the 20 µm mesh for counting. Then, the number of larvae present in each well was counted to determine percentage of larval migration for each compound: % Larval migration=number of larvae migrating in compound wells/number of larvae migrating in negative control×100
For the larvae, ivermectin at 8.75 µg/mL and DMSO 0.5% (v/v) were used as controls and at least 12 replicates were performed. […] EC50 were determined by plotting the percentage of viability of the L1 against the concentration of each compound, using the nonlinear fit analysis provided by the SigmaPlot® 10.1.

[6] = Caenorhabditis elegans, read-out: EC50 (μM) at 24 h, C. elegans motility, DR assay
[7] = 0 h, read-out: Inhibition (%) 110 μM (0 h)
[8] = 24 h, read-out: Inhibition (%) 110 μM (24 h)
[9] = 24 h, read-out: Percentage of motility inhibition 24 h, Table S2, C. elegans SS assay, 110 μM, 24 h, averages of 4 data points
[10] = Caenorhabditis elegans, 24 h, read-out: EC50 (μM) at 24 h, C. elegans motility, DR assay, 24 h
[11] = 0 h, read-out: Inhibition (%) 110 μM (0 h), C. elegans L4 motility, 110 μM, 0 h, mean ± SD of four experiments
[12] = 0 h, read-out: Percentage of motility inhibition 0 h, Table S2, C. elegans SS assay, 110 μM, 0 h, averages of 4 data points
[13] = 24 h, read-out: Inhibition (%) 110 μM (24 h), C. elegans L4 motility, 110 μM, 24 h, mean ± SD of four experiments
[14] = Table S2, C. elegans SS assay, 110 μM, 24 h, averages of 4 data points
[15] = read-out: EC50 (μM) at 24 h, C. elegans motility, DR assay
[16] = C. elegans L4 motility, 110 μM, 0 h, mean ± SD of four experiments
[17] = C. elegans L4 motility, 110 μM, 24 h, mean ± SD of four experiments
[18] = Table S2, C. elegans SS assay, 110 μM, 0 h, averages of 4 data points

CC(C)[C@]12O[C@H]1[C@@H]1O[C@]13[C@]1(O[C@H]1C[C@H]1C4=C(CC[C@@]13C)C(=O)OC4)[C@@H]2O [Triptolide]
EC50 (C. elegans [1]; [6]): > 60 µM
inhibition at 110 µM (C. elegans [2]; [7]): 15%
inhibition at 110 µM (C. elegans [2]; [8]): 72 ± 1%
inhibition at 110 µM (C. elegans [2]; [9]): 71%

Cc1cc(O)cc(C)c1Cl [Chloroxylenol, reference compound]
EC50 (C. elegans [1]; [10]): > 60 µM
inhibition at 110 µM (C. elegans [2]; [11]): 100%
inhibition at 110 µM (C. elegans [2]; [12]): 100%
inhibition at 110 µM (C. elegans [2]; [13]): 100%
inhibition at 110 µM (C. elegans [2]; [9]): 100%

C=C1CC[C@@H]2[C@](C)(CO)[C@H](O)CC[C@@]2(C)[C@@H]1C/C=C1/C(=O)OC[C@H]1O [Andrographolide]
Percentage of motility inhibition 24 h (C. elegans [3]; [14]): 19%
inhibition at 110 µM (C. elegans [2]; [9]): 17%

CC(C)=CCc1c(-c2ccc(O)cc2O)oc2c([C@H]3C=C(C)C[C@@H](c4ccc(O)cc4O)[C@@H]3C(=O)c3ccc(O)cc3O)c(O)cc(O)c2c1=O [Kuwanon G]
EC50 (C. elegans [1]; [15]): 34.7 ± 1.6 µM
Inhibition (%) 110 μM (0 h) (C. elegans [3]; [16]): 0 ± 0%
Inhibition (%) 110 μM (24 h) (C. elegans [3]; [17]): 74 ± 5%
Percentage of motility inhibition 24 h (C. elegans [3]; [14]): 75%
H. contortus EHI (%) [4]: 9.4 ± 1.8%
H. contortus LMIT (%) [5]: 0.0%

COc1ccc2c(c1O)-c1c(OC)c(OC)cc3c1[C@H](C2)N(C)CC3 [Isocorydine]
Percentage of motility inhibition 24 h (C. elegans [3]; [14]): 7%
inhibition at 110 µM (C. elegans [2]; [12]): 0%

CC[C@H]1[C@@H]2C[C@H]3[C@@H]4N(C)c5ccccc5[C@]45C[C@@H]([C@H]2[C@H]5O)N3[C@@H]1O [Ajmaline]
Percentage of motility inhibition 0 h (C. elegans [3]; [18]): 13%
inhibition at 110 µM (C. elegans [2]; [12]): 19%

CN[C@H]1C[C@@H](N)[C@H](O)[C@@H](O[C@@H]2O[C@H](CO)[C@H](O)[C@@H]3OC4(O[C@H]23)O[C@H]([C@@H](N)CO)[C@H](O)[C@H](O)[C@H]4O)[C@@H]1O (stereo partly shown) [Hygromycin B, reference compound]
EC50 (C. elegans [1]; [15]): > 60 µM
Inhibition (%) 110 μM (0 h) (C. elegans [3]): 67 ± 28%
Inhibition (%) 110 μM (24 h) (C. elegans [3]): 89 ± 5%

Oc1ccc(/C=C/c2cc(O)cc(O)c2)cc1 [Resveratrol]
EC50 (C. elegans [1]; [10]): 27.7 ± 1.5 µM
inhibition at 110 µM (C. elegans [2]; [11]): 82 ± 8%
inhibition at 110 µM (C. elegans [2]; [13]): 7 ± 7%
inhibition at 100 µM [4]: 0%
inhibition at 100 µM [5]: 0%

O=[N+]([O-])c1ccc(O)c2ncccc12 [Nitroxoline, reference compound]
EC50 (C. elegans [1]; [10]): > 60 µM
inhibition at 110 µM (C. elegans [2]; [11]): 52 ± 32%
inhibition at 110 µM (C. elegans [2]; [13]): 88 ± 2%

CNCC(O)c1ccc(O)cc1 (stereo not shown) [Synephrine]
Percentage of motility inhibition 24 h (C. elegans [3]; [14]): 24%
inhibition at 110 µM (C. elegans [2]; [12]): 16%

CC[C@@H](C(=O)[C@@H](C)[C@@H](O)[C@H](C)[C@@H]1O[C@@H]([C@@H](CC)C(=O)O)CC[C@@H]1C)[C@H]1O[C@]2(C=C[C@@H](O)[C@]3(CC[C@@](C)([C@H]4CC[C@](O)(CC)[C@H](C)O4)O3)O2)[C@H](C)C[C@@H]1C [Salinomycin, reference compound]
EC50 (C. elegans [1]; [6]): 55.3 ± 1.4 µM
inhibition at 110 µM (C. elegans [2]; [7]): 81 ± 9%
inhibition at 110 µM (C. elegans [2]; [8]): 94 ± 1%
inhibition at 110 µM (C. elegans [2]; [9]): 93%
inhibition at 100 µM [4]: 2.8 ± 5.1%
inhibition at 100 µM [5]: 0%

CC(C)(O)[C@H]1O[C@H]2CC[C@@]3(C)[C@@](O)(CC[C@H]4Cc5c([nH]c6ccccc56)[C@@]43C)C2=CC1=O [Paxilline]
Percentage of motility inhibition 24 h (C. elegans [3]; [14]): 0% and 8%
inhibition at 110 µM (C. elegans [2]; [12]): 12%

COC(=O)[C@H]1[C@H]2C[C@@H]3c4[nH]c5ccccc5c4CCN3C[C@H]2C[C@@H](OC(=O)c2cc(OC)c(OC)c(OC)c2)[C@@H]1OC [Deserpidine]
Percentage of motility inhibition 24 h (C. elegans [3]; [14]): 23%
inhibition at 110 µM (C. elegans [2]; [9]): 21%

COc1ccc2cc1Oc1ccc(cc1)C[C@H]1c3cc(c(OC)cc3CCN1C)Oc1c(OC)c(OC)cc3c1[C@H](C2)N(C)CC3 [Tetrandrine]
Percentage of motility inhibition 24 h (C. elegans [3]; 24 h, 110 µM): 12%
inhibition at 110 µM (C. elegans [2]; [9]): 16%

CC[C@@]1(O)C(=O)OCc2c1cc1n(c2=O)Cc2cc3ccccc3nc2-1 [Camptothecin]
Percentage of motility inhibition 24 h (C. elegans [3]; [14]): 3%
inhibition at 110 µM (C. elegans [2]; [12]): 25%
inhibition at 110 µM (C. elegans [2]; [9]): 6%

O=c1cc(-c2ccccc2)oc2cc(O)c(O)c(O)c12 [Baicalein]
Percentage of motility inhibition 0 h (C. elegans [3]; 0 h, 110 μM): 14%
Percentage of motility inhibition 24 h (C. elegans [3]; 24 h, 110 µM): 19%
inhibition at 110 µM (C. elegans [2]; [12]): 10%
inhibition at 110 µM (C. elegans [2]; [9]): 12%

CCc1c(Cl)c(O)c(Cl)c(O)c1C(=O)O[C@H]1[C@H](O)[C@H](OC)[C@H](OC/C2=C\C=C\C[C@H](O)/C(C)=C/[C@H](CC)[C@@H](O[C@@H]3OC(C)(C)[C@@H](OC(=O)C(C)C)[C@H](O)[C@@H]3O)/C(C)=C/C(C)=C/C[C@@H]([C@@H](C)O)OC2=O)O[C@@H]1C [Fidaxomicin, reference compound]
EC50 (C. elegans [1]; [10]): > 60 µM
inhibition at 110 µM (C. elegans [2]; [11]): 82 ± 7%
inhibition at 110 µM (C. elegans [2]; [13]): 89 ± 1%
inhibition at 110 µM (C. elegans [2]; [9]): 88%

Nc1ccc(S(=O)(=O)Nc2cnc3ccccc3n2)cc1 [Sulfaquinoxaline, reference compound]
EC50 (C. elegans [1]; [10]): > 60 µM
inhibition at 110 µM (C. elegans [2]; [11]): 87 ± 1%
inhibition at 110 µM (C. elegans [2]; [13]): 67 ± 6%

CC(C)=CCC/C(C)=C/CC/C(C)=C/CC/C=C(\C)CC/C=C(\C)CCC=C(C)C [Squalene]
Percentage of motility inhibition 24 h (C. elegans [3]; 24 h, 110 µM): 19%
inhibition at 110 µM (C. elegans [2]; [12]): 4%
inhibition at 110 µM (C. elegans [2]; [9]): 11%

O=C1CCC[C@@H]2[C@H]3CCC[N+]4([O-])CCC[C@@H](CN12)[C@@H]34 (stereo partly shown) [Oxymatrine]
Percentage of motility inhibition 24 h (C. elegans [3]; 24 h, 110 µM): 6%
inhibition at 110 µM (C. elegans [2]; [9]): 11%

CC12CCC(CC1=O)C2(C)C (stereo not shown) [Camphor]
Percentage of motility inhibition 24 h (C. elegans [3]; [14]): 10%
inhibition at 110 µM (C. elegans [2]; [12]): 0%
inhibition at 110 µM (C. elegans [2]; [9]): 5%

Spiramycin [reference compound]
EC50 (C. elegans [1]; [15]): > 60 µM
Inhibition (%) 110 μM (0 h) (C. elegans [3]; [16]): 43 ± 42%
Inhibition (%) 110 μM (24 h) (C. elegans [3]; [17]): 81 ± 9%
Percentage of motility inhibition 0 h (C. elegans [3]; [18]): 42%
Percentage of motility inhibition 24 h (C. elegans [3]; [14]): 80%

CC1=C[C@]23C(=O)[C@@H](C=C(CO)[C@@H](O)[C@]2(O)[C@H]1O)[C@H]1[C@@H](C[C@H]3C)C1(C)C [Ingenol]
Percentage of motility inhibition 0 h (C. elegans [3]; [18]): 0% and 1%
inhibition at 110 µM (C. elegans [2]; [9]): 19%

Cc1ccc(C(C)C)cc2c(C)ccc1-2 [Guaiazulene]
Percentage of motility inhibition 24 h (C. elegans [3]; 24 h, 110 µM): 12%
inhibition at 110 µM (C. elegans [2]; [9]): 24%

C=C(C)[C@@H]1CC[C@]2(C(=O)O)CC[C@]3(C)[C@H](CC[C@@H]4[C@@]5(C)CC[C@H](O)C(C)(C)[C@@H]5CC[C@]43C)[C@@H]12 [Betulinic acid]
Percentage of motility inhibition 0 h (C. elegans [3]; [18]): 22%
inhibition at 110 µM (C. elegans [2]; [12]): 27%

NC(=O)c1ncn([C@@H]2O[C@H](CO)[C@@H](O)[C@H]2O)n1 [Ribavirin, reference compound]
EC50 (C. elegans [1]; [10]): > 60 µM
inhibition at 110 µM (C. elegans [2]; [11]): 91 ± 5%
inhibition at 110 µM (C. elegans [2]; [13]): 76 ± 11%
